Experimental data as given in patent US4696920A, “Certain 2-substituted 1,3-propylidenediphosphonate derivatives, pharmaceutical compositions containing them and their use as antihypertensive agents” (priority 1984, dated 1987).
Read-outs that look alike come from different tables or passages of the source.

How the values were obtained:
[1] = test system: calcium channel binding site for [^3 H]-Nitrendipine (rat brain membranes); assay: [^3 H]-Nitrendipine binding to rat brain membranes; design: species or system rat (male Wistar); details: for Specifically bound [^3 H]-Nitrendipine % of control value: compound concentration 1.0 μM; for Specifically bound [^3 H]-Nitrendipine % of control value / Bound ^3 H at 1.0 μM / Bound ^3 H at 0.1 μM / modulation of [^3 H]-Nitrendipine binding (in words): Table 1a; for Bound ^3 H at 1.0 μM / Bound ^3 H at 0.1 μM: ratio of [^3 H]-Nitrendipine bound at 1.0 and 0.1 μM compound
Description: Diltiazem hydrochloride was a generous gift from Goedecke A. G.
Suitable dilutions were made in 50 mM Tris-HCl buffer (pH 7.4) containing 150 mM NaCl and 1 mM CaCl2. The ethanol concentration in the final assay never exceeded 0.1%.
The purity of the radioligand and of the various agents tested was monitored by thin layer chromatography on silica gel plates.
The following procedure was adapted from Bellemann et al (Proc. Nat. Acad. Sci. 80, 2356, 1983), and Gould et al (Proc. Nat. Acad. Sci. 79, 3656, 1982).
Adult male Wistar rats weighing 250-300 g were anesthetized with carbon dioxide prior to decapitation. The brain was removed then immersed in ice-cold 0.32M sucrose and washed 2-3 times with fresh solution. Cerebral cortex was minced and homogenized (Potter-Elvehjem homogenizer) in 10 volumes of ice-cold sucrose solution. The homogenate was centrifuged (4° C.) at 1000×g for 15 minutes. The resulting supernatant was then centrifuged at 90000×g (30 minutes) and the pellet was washed twice with 20 ml ice-cold 50 mM Tris-HCl pH 7.4.
The final pellet was resuspended in 50 mM Tris-HCl pH 7.4/150 mM NaCl/1 mM CaCl2 to give a protein concentration of 4 mg/ml.
The membrane suspension was kept on ice until used. Binding assays were performed in subdued light to prevent dihydropyridine breakdown. Membrane protein (400 μg/tube) was incubated in 50 mM Tris-HCl buffer (pH 7.4)/150 mM NaCl/1 mM CaCl2 with the indicated concentrations of radioligand and test compounds or known calcium antagonists, in a total volume of 2 ml. After the indicated time intervals, the reaction was terminated by rapid filtration through Whatman GF/B glass fiber filters (2.4 cm diameter) on a Millipore filter holder. The assay tube was rinsed with 2 ml ice-cold 50 mM Tris-HCl pH (7.4) and the precipitate was further washed with 2×5 ml of the same buffer.
Filters were dried under a heat lamp and were extracted with 10 ml of liquid scintillation cocktail (Toluene/Triton X-100, 2/1 containing 4 g Omnifluor/1) prior to tritium determination at 48% counting efficiency.
Assays were performed in duplicate or triplicate.
Data were expressed as percent specific [^3 H]-Nitrendipine binding relative to the established control value.
Compound activity in the [^3 H]-Nitrendipine binding assay was evaluated by using the following criteria:
1. [^3 H]-Nitrendipine binding at 1.0 μM compound final concentration was either below 95% or above 105% of the control value determined in absence of compound.
2. […] This ratio is indicative of a dose response relationship within the compound concentration range tested, when the value differs appreciably from 1.0.

[2] = test system: rat trachea contraction induced by KCl depolarization; assay: KCl-induced rat trachea contraction; design: species or system rat (male SHR, Okamoto-Aoki); details: for activity at 1 µM: Rattus norvegicus, 40 min, read-out: Contraction (% max.)
Description: Spontaneously hypertensive male rats (SHR) Okamoto-Aoki Strain, weighing 300-400 g were used in this study. They were killed by bleeding after Pentobarbital anesthesia (Nembutal, Abbott Co, 40 mg/kg). Their entire trachea was quickly removed and dissected free of fat and connective tissue in Krebs-Ringer solution. A strip (4 mm×40 mm), obtained by spirally cutting the trachea, was immediately suspended in a 50 ml Krebs-Ringer solution and continuously bubbled with a O2 /CO2 (95/5) mixture. Bath temperature was maintained at 37±1° C. The composition (mM) of the Krebs-Ringer solution modified by Nghiem, was as follows: NaCl, (118.0); KCl, (4.7); CaCl2, (2.5); MgCl2, (1.18); NaHCO3, (12.5); KH2 P04, (1.18); glucose, (5.5) in bidistilled water (pH 7.4). Each strip was equilibrated under initial tension (1.5-2 g) for 1-2 hours and the bath solution changed every 30 min. A contractile or relaxant response was isometrically measured with a force-displacement transducer (Ugo-Basile) and recorded on a polygraph (Beckman).
After equilibration, KCl was added to the bath at 65 mM final concentration. This concentration produced maximum trachea contraction. Under these conditions, a plateau phase showing a tonic sustained contraction was reached within 30 minutes. Drugs were added 30 minutes after the plateau phase has been reached (final concentration=1.0 μM). […] Recordings of the residual trachea contraction were made 40 minutes after drug addition to the bathing fluid. The initial KCl induced contraction was taken as the maximum KCl response (100%). Results were expressed as % of maximal contraction. Nifedipine, Prenylamine, Flunarizine and Diltiazem were used as reference standards to validate this assay.
All 1,3-diphosphonates and drugs were dissolved in saline (0.9% NaCl) except when water insoluble, then the compounds were dissolved in 2% ethanol. The final concentration of ethanol used has been shown not to interfere with the assay.
Results are expressed as mean values±SEM, the Student's t-test was used for statistical analysis.

[3] = final concentration 1.0 μM, 65 mM KCl, 40 minutes after drug addition, mean ± SEM

Row | SMILES | Specifically bound [^3 H]-Nitrendipine % of control value [1] | Bound ^3 H at 1.0 μM / Bound ^3 H at 0.1 μM [1] | activity at 1 µM [2] | activity on KCl-induced trachea contraction (in words) ([2]; final concentration 1.0 μM) | modulation of [^3 H]-Nitrendipine binding (in words) [1] | activity at 1 µM [2, 3] | % [^3 H]-Nitrendipine bound ([1]; reference standards at 1 μM)
1 | O=P(O)(O)CC(Cc1ccccc1)CP(=O)(O)O [Compound 2, 2-Benzyl-1,3-propylidenediphosphonic acid] | 98 % of control value | 1.002 |  |  |  |  | 
2 | O=P(O)(O)CC(CCc1ccccc1)CP(=O)(O)O [Compound 3] | 94 % of control value | 0.955 |  |  |  |  | 
3 | O=P(O)(O)CC(CCCc1ccccc1)CP(=O)(O)O [Compound 4] | 99 % of control value | 0.957 |  |  |  |  | 
4 | O=P(O)(O)CC(Cc1ccc(Cl)cc1)CP(=O)(O)O [Compound 5] | 99 % of control value | 1.003 |  |  |  |  | 
5 | COP(=O)(CC(Cc1ccccc1)CP(=O)(OC)OC)OC [Compound 10, Tetramethyl 2-benzyl-1,3-propylidenediphosphonate] | 92 % of control value | 0.983 | 91% |  |  |  | 
6 | COP(=O)(CC(CCc1ccccc1)CP(=O)(OC)OC)OC [Compound 11] | 96 % of control value | 1.024 |  |  |  |  | 
7 | CCOP(=O)(CC(Cc1cccc2ccccc12)CP(=O)(OCC)OCC)OCC [Compound 37] | 104 % of control value | 1.011 | 53.8 ± 0.4% | potent pharmacological activity |  |  | 
8 | CCOP(=O)(CC(Cc1ccc(-c2ccccc2)cc1)CP(=O)(OCC)OCC)OCC [Compound 38] | 60 % of control value | 0.721 | 84 ± 2.4% | potent pharmacological activity | strong inhibitors |  | 
9 | CCOP(=O)(CC(CP(=O)(OCC)OCC)C(c1ccccc1)c1ccccc1)OCC [Compound 39] | 110 % of control value | 1.220 | 96 ± 4.9% |  |  |  | 
10 | CCOP(=O)(CC(CP(=O)(OCC)OCC)c1ccccn1)OCC [Compound 40] | 100 % of control value | 0.978 | 61.2 ± 4.6% | potent pharmacological activity |  |  | 
11 | CC(C)OP(=O)(CC(CCCc1ccccc1)CP(=O)(OC(C)C)OC(C)C)OC(C)C [Compound 56] | 115 % of control value | 1.115 | 100% |  | activators |  | 
12 | CCCCCC(CP(=O)(OCCCC)OCCCC)CP(=O)(OCCCC)OCCCC [Compound 66] | 26 % of control value | 0.387 | 88.5 ± 0.5% |  | strong inhibitors |  | 
13 | CCCCOP(=O)(CC(CCCC1CCCCC1)CP(=O)(OCCCC)OCCCC)OCCCC [Compound 68, Tetrabutyl 2-(3-Cyclohexylpropyl)-1,3-propylidenediphosphonate] | 0 % of control value | 0.000 | 100 ± 4% |  | strong inhibitors |  | 
14 | CCCCOP(=O)(CC(Cc1ccc(-c2ccccc2)cc1)CP(=O)(OCCCC)OCCCC)OCCCC [Compound 84] | 80 % of control value | 0.886 | 98.5 ± 2.5% |  |  |  | 
15 | CCCCOP(=O)(CC(CP(=O)(OCCCC)OCCCC)C(c1ccccc1)c1ccccc1)OCCCC [Compound 85] | 112 % of control value | 1.082 | 96.2 ± 0.8% |  |  |  | 
16 | CCCCOP(=O)(CC(CP(=O)(OCCCC)OCCCC)c1ccccn1)OCCCC [Compound 86] | 98 % of control value | 1.052 | 89 ± 2% |  |  |  | 
17 | CCCCOP(=O)(CC(Cc1ccncc1)CP(=O)(OCCCC)OCCCC)OCCCC [Compound 87] | 93 % of control value | 0.967 | 71.9 ± 1.9% | potent pharmacological activity |  |  | 
18 | CCCCOP(=O)(CC(CCCc1cccnc1)CP(=O)(OCCCC)OCCCC)OCCCC [Compound 88] | 69 % of control value | 0.760 | 56.3 ± 5.9% | potent pharmacological activity | strong inhibitors |  | 
19 | CC(C)COP(=O)(CC(CCCc1ccccc1)CP(=O)(OCC(C)C)OCC(C)C)OCC(C)C [Compound 111] | 57 % of control value | 0.809 |  |  |  | 100 ± 1.5% | 
20 | CCCCCOP(=O)(CC(CCCc1ccccc1)CP(=O)(OCCCCC)OCCCCC)OCCCCC [Compound 112, Tetrapentyl 2-(3-phenylpropyl)-1,3-propylidenediphosphonate] | 0 % of control value | 0.645 |  |  |  | 84 ± 3% | 
21 | CCCCCCOP(=O)(CC(CCCc1ccccc1)CP(=O)(OCCCCCC)OCCCCCC)OCCCCCC [Compound 113, Tetrahexyl 2-(3-phenylpropyl)-1,3-propylidenediphosphonate] | 20 % of control value | 0.621 |  |  | strong inhibitors | 90 ± 1.5% | 
22 | CCCCCOP(=O)(CC(CCCc1ccccc1)CP(=O)(OCC)OCCCCC)OCC (stereo not drawn) [Compound 117, Bis(ethyl, pentyl) 2-(3-phenylpropyl)-1,3-propylidenediphosphonate] | 79 % of control value | 0.950 | 60 ± 4% | potent pharmacological activity | strong inhibitors |  | 
23 | CCN(CC)CCCCCCCCOC(=O)c1cc(OC)c(OC)c(OC)c1 [TMB-8, reference compound] |  |  |  |  |  |  | 95%
